Experimental data published in ChEMBL document CHEMBL3217528, “Bicyclic imidazole-4-one derivatives: a new class of antagonists for the orphan G protein-coupled receptors GPR18 and GPR55” (Medchemcomm, 2014).
Calls of active or inactive are those of the source. The rule behind the calls is not given here.

How the values were obtained:
[1] = target: T1, N-arachidonyl glycine receptor (Homo sapiens) (UniProt Q14330); assay: Agonist activity at human GPR18 expressed in CHO cells assessed as induction of beta-arrestin recruitment by beta-galactosidase enzyme fragment complementation method relative to delta9-THC; format: cell-based; design: concentration or dose not given beside the values
T1 sequence (whole entry): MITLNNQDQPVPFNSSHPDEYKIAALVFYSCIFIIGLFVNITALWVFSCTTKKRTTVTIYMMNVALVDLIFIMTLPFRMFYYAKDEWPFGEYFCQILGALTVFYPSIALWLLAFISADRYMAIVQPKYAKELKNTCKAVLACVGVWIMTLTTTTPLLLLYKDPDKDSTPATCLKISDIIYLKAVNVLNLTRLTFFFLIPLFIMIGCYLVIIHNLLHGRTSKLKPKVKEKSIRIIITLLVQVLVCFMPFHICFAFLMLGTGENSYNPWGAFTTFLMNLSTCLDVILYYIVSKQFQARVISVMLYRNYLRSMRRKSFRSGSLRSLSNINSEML

[2] = target: T2, N-arachidonyl glycine receptor (Homo sapiens, UniProt Q14330); assay: Antagonist activity against human GPR18 expressed in CHO cells assessed as reduction in delta9-THC-induced beta-arrestin recruitment by beta-galactosidase enzyme fragment complementation method; format: cell-based
T2 sequence (Q14330 whole entry): T1 sequence (whole entry)

[3] = target: T3, G-protein coupled receptor 55 (Homo sapiens, UniProt Q9Y2T6); assay: Antagonist activity against human GPR55 expressed in CHO cells assessed as reduction in LPI-induced beta-arrestin recruitment by beta-galactosidase enzyme fragment complementation method; format: cell-based
Cannabinoid receptor 1 [4] = target: T4, Cannabinoid receptor 1 (Homo sapiens, UniProt P21554); assay: Intrinsic activity at human recombinant CB1 receptor expressed in HEK293 cell membranes assessed as stimulation of [35S]GTPgammaS binding at 10 uM by liquid scintillation counting method relative to CP55,940; format: functional
Cannabinoid receptor 1 [5] = target: Cannabinoid receptor 1 (Rattus norvegicus, UniProt P20272); assay: Displacement of [3H]CP55,940 from CB1 receptor in rat brain cortical membranes; format: cell membranes
Cannabinoid receptor 2 [6] = target: T5, Cannabinoid receptor 2 (Homo sapiens, UniProt P34972); assay: Displacement of [3H]CP55,940 from human recombinant CB2 receptor expressed in HEK293 cells; format: cell-based
Cannabinoid receptor 2 [7] = target: T5, Cannabinoid receptor 2; assay: Agonist activity at human recombinant CB2 receptor expressed in CHO-K1 cell membranes assessed effect on forskolin-induced cAMP accumulation at 10 uM; format: functional, cell-based
[8] = target: Cannabinoid receptor 1 (Rattus norvegicus) (UniProt P20272); assay: Intrinsic activity at CB1 receptor in rat brain cortical membranes assessed as stimulation of [35S]GTPgammaS binding at 10 uM by liquid scintillation counting method relative to CP55,940; format: functional, cell membranes
[9] = target: T1, N-arachidonyl glycine receptor (Homo sapiens); assay: Antagonist activity against human GPR18 expressed in CHO cells assessed as reduction in delta9-THC-induced beta-arrestin recruitment at 10 uM by beta-galactosidase enzyme fragment complementation method; format: cell-based
Cannabinoid receptor 1 [10] = target: T4, Cannabinoid receptor 1; assay: Displacement of [3H]CP55,940 from human recombinant CB1 receptor expressed in CHO-K1 cells; format: cell-based
[11] = target: T3, G-protein coupled receptor 55; assay: Antagonist activity against human GPR55 expressed in CHO cells assessed as reduction in LPI-induced beta-arrestin recruitment at 10 uM by beta-galactosidase enzyme fragment complementation method; format: cell-based
[12] = target: T3, G-protein coupled receptor 55; assay: Agonist activity at human GPR55 expressed in CHO cells assessed as induction of LPI-induced beta-arrestin recruitment by beta-galactosidase enzyme fragment complementation method relative to LPI; format: cell-based; design: concentration or dose not given beside the values
Cannabinoid receptor 1 [13] = target: T4, Cannabinoid receptor 1; assay: Agonist activity at human recombinant CB1 receptor expressed in CHO-K1 cell membranes assessed effect on forskolin-induced cAMP accumulation at 10 uM; format: functional, cell-based
[14] = target: Cannabinoid receptor 1 (Rattus norvegicus) (UniProt P20272); assay: Displacement of [3H]CP55,940 from CB1 receptor in rat brain cortical membranes at 10 uM; format: cell membranes
Cannabinoid receptor 1 [15] = target: T4, Cannabinoid receptor 1; assay: Displacement of [3H]CP55,940 from human recombinant CB1 receptor expressed in CHO-K1 cells at 10 uM; format: cell-based
Cannabinoid receptor 2 [16] = target: T5, Cannabinoid receptor 2; assay: Displacement of [3H]CP55,940 from human recombinant CB2 receptor expressed in HEK293 cells at 10 uM; format: cell-based
[17] = Displacement of [3H]diazepam from GABAA receptor in rat brain cortical membranes; format: cell membranes
[18] = target: T6, G-protein coupled receptor 35 (Homo sapiens, UniProt Q9HC97); assay: Agonist activity at human GPR35 assessed as induction of beta-arrestin recruitment by beta-galactosidase enzyme fragment complementation method
[19] = target: T6, G-protein coupled receptor 35; assay: Antagonist activity at human GPR35 assessed as reduction of zaprinast-induced beta-arrestin recruitment by beta-galactosidase enzyme fragment complementation method
[20] = target: T6, G-protein coupled receptor 35; assay: Agonist activity at human GPR35 assessed as induction of beta-arrestin recruitment by beta-galactosidase enzyme fragment complementation method relative to zaprinast; design: concentration or dose not given beside the values
[21] = target: T6, G-protein coupled receptor 35; assay: Antagonist activity at human GPR35 assessed as reduction of zaprinast-induced beta-arrestin recruitment by beta-galactosidase enzyme fragment complementation method relative to untreated control; design: concentration or dose not given beside the values; conditions: concentration not given here

Chain of Cannabinoid receptor 1 (Rattus norvegicus, UniProt P20272) (P20272 whole entry): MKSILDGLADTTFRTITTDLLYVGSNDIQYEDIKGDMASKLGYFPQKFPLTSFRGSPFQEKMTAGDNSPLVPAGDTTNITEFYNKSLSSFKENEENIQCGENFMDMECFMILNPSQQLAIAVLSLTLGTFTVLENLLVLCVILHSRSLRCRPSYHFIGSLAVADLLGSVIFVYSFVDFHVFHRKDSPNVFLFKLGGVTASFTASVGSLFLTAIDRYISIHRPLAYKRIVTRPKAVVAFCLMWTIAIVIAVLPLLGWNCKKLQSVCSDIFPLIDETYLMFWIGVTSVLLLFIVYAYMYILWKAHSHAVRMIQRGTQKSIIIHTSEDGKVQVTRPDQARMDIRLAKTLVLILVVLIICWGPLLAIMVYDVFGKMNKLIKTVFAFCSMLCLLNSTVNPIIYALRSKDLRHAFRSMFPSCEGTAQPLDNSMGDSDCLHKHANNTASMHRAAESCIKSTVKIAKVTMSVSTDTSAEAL
Chain of Cannabinoid receptor 1 (Rattus norvegicus) (P20272 whole entry, the tested form may be a part): as the sequence (P20272 whole entry) above
T5 sequence (P34972 whole entry): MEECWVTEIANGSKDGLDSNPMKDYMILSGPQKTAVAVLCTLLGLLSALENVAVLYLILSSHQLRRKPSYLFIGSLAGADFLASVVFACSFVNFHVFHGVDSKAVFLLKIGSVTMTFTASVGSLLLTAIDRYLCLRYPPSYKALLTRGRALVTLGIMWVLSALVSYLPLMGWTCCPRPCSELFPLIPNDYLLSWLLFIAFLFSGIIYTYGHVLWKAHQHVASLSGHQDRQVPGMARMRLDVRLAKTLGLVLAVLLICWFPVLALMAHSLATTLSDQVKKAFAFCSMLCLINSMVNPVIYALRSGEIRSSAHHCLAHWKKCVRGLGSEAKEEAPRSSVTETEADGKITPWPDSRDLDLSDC
T3 sequence (Q9Y2T6 whole entry, the tested form may be a part): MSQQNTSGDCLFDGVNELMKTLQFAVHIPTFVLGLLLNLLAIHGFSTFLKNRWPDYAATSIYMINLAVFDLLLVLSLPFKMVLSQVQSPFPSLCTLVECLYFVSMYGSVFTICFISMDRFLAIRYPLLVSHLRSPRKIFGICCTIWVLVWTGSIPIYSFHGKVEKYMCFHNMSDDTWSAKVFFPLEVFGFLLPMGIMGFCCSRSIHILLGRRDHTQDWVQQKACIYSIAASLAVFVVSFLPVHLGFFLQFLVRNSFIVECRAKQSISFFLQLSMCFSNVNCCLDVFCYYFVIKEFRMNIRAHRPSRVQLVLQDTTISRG
T4 sequence (P21554 whole entry): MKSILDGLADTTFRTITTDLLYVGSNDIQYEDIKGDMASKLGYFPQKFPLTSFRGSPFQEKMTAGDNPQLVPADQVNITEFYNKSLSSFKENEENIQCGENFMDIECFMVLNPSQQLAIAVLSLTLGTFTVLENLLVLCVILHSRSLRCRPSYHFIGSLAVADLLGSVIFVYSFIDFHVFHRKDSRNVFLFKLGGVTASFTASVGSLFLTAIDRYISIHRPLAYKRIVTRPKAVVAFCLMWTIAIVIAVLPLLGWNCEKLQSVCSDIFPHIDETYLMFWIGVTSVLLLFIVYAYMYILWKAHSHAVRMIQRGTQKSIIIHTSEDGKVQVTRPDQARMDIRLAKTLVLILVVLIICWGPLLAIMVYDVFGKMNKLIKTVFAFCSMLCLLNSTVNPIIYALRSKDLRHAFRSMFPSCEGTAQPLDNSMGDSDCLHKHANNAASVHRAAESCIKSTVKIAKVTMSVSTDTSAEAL
T6 sequence (Q9HC97 whole entry, the tested form may be a part): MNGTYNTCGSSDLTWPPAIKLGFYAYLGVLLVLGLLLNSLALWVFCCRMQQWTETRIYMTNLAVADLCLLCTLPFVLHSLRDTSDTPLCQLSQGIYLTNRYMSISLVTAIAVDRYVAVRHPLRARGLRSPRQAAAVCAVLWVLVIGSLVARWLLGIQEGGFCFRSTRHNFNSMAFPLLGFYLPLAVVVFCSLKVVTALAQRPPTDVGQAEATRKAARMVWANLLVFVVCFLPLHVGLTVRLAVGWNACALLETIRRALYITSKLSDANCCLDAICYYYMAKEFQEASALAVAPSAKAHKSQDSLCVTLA

| SMILES | Activity [1] [%] | IC50 [2] [µM] | IC50 [3] [µM] | Intrinsic activity (Cannabinoid receptor 1 [4]) [%] | Ki (Cannabinoid receptor 1 [5]) [µM] | Ki (Cannabinoid receptor 2 [6]) [µM] | Activity (Cannabinoid receptor 2 [7]) | Intrinsic activity [8] [%] | inhibition [9] [%] | Ki (Cannabinoid receptor 1 [10]) [µM] | inhibition [11] [%] | Activity [12] [%] | inhibition [14] [%] | inhibition (Cannabinoid receptor 1 [15]) [%] | inhibition (Cannabinoid receptor 2 [16]) [%] | also measured |
| --- | --- | --- | --- | --- | --- | --- | --- | --- | --- | --- | --- | --- | --- | --- | --- | --- |
| O=C1/C(=C/c2cccc(OCc3ccccc3)c2)N=C2SCCCCN12 | 7 | 10 | > 10 | -35 | 2.01 | 1.81 | inactive | -26 | 49 | 2.13 | 21 | 4 | – | – | – | – |
| O=C1/C(=C/c2cccc(OCc3ccc(F)cc3)c2)N=C2SCCCCN12 | 0 | > 10 | > 10 | -16 | 0.73 | 1.56 | inactive | -16 | 5 | 0.85 | 12 | 19 | – | – | – | Activity (Cannabinoid receptor 1 [13]): inactive |
| O=C1/C(=C/c2cccc(OCc3ccccc3Cl)c2)N=C2SCCCCN12 | 0 | 6.48 | ≥ 10 | – | > 10 | 0.98 | inactive | – | – | 2.29 | 43 | 7 | 37 | – | – | – |
| O=C1N2CCCSC2=NC1(c1ccccc1)c1ccccc1 | 14 | > 10 | > 10 | -31 | 7.68 | > 10 | – | -21 | 0 | > 10 | 23 | 19 | – | 25 | 5 | – |
| O=C1/C(=C/c2cccc(Oc3ccccc3)c2)N=C2SCCCN12 | 5 | 10 | > 10 | -49 | 6.58 | > 10 | – | -15 | 54 | > 10 | 33 | 13 | – | 29 | 9 | – |
| O=C1/C(=C/c2cccc(OCc3ccccc3)c2)N=C2SCCCN12 | 0 | 7.22 | > 10 | -33 | 4.22 | 1.11 | inactive | -9 | – | > 10 | 0 | 37 | – | 25 | – | – |
| O=C(Oc1cccc(/C=C2\N=C3SCCCN3C2=O)c1)c1ccccc1 | 0 | 6.35 | > 10 | – | > 10 | ≥ 10 | – | – | – | > 10 | 7 | 49 | 13 | 2 | 47 | Ki [17]: > 10 µM |
| COc1ccc(/C=C2\N=C3SCCCN3C2=O)c(OC)c1 | 0 | > 10 | 9.77 | – | > 10 | 2.57 | – | – | 7 | ≥ 10 | – | 0 | 12 | 42 | – | EC50 [18]: > 10 µM; IC50 [19]: > 10 µM; Activity [20]: -7%; inhibition [21]: 20% |
| O=C1/C(=C/c2cccc(OCc3ccc(Cl)cc3)c2)N=C2SCCCN12 | 0 | 0.279 | > 10 | -16 | 8.24 | 4.03 | – | -7 | – | > 10 | 0 | 21 | – | 0 | – | Ki [17]: > 10 µM; EC50 [18]: > 10 µM; IC50 [19]: > 10 µM; Activity [20]: -1%; inhibition [21]: 3% |
| O=C1/C(=C/c2cccc(OCc3cccc(Cl)c3)c2)N=C2SCCCCN12 | 0 | > 10 | > 10 | -14 | 2.46 | > 10 | – | -12 | 15 | 2.16 | 27 | 52 | – | – | 37 | EC50 [18]: > 10 µM; IC50 [19]: > 10 µM; Activity [20]: -3%; inhibition [21]: 25% |
| O=C1N=C2SCCCCN2C1(c1ccccc1)c1ccccc1 | 11 | > 10 | > 10 | -48 | 21.3 | > 10 | – | -19 | 0 | > 10 | 32 | 10 | – | 34 | 10 | – |
| O=C1/C(=C/c2cccc(OCc3ccc(Cl)cc3Cl)c2)N=C2SCCCN12 | 0 | 2.55 | > 10 | -51 | 0.55 | 0.95 | inactive | -10 | – | 2.09 | 0 | 12 | – | – | – | Ki [17]: > 10 µM; Activity (Cannabinoid receptor 1 [13]): inactive |
| O=C1/C(=C/c2ccccc2)N=C2SCCCN12 | 7 | > 10 | > 10 | – | > 10 | > 10 | – | – | 5 | > 10 | 25 | 32 | 1 | 40 | 18 | EC50 [18]: > 10 µM; IC50 [19]: > 10 µM; Activity [20]: -5%; inhibition [21]: 12% |
| O=C1/C(=C/c2cccc(Oc3ccccc3)c2)N=C2SCCCCN12 | 1 | 14.1 | > 10 | -37 | 3.63 | > 10 | – | -21 | – | 1.6 | 33 | 5 | – | – | 21 | – |
| O=C1N2CCCCSC2=NC1(c1ccccc1)c1ccccc1 | 15 | > 10 | > 10 | -16 | 3.94 | > 10 | – | -15 | 0 | 1.34 | 6 | 54 | – | – | 14 | Activity (Cannabinoid receptor 1 [13]): inactive |
| O=C1/C(=C/c2ccc(Br)cc2)N=C2SCCCN12 | 0 | > 10 | > 10 | – | > 10 | > 10 | – | – | 13 | > 10 | 16 | 26 | 21 | 29 | 8 | – |
| O=C1/C(=C/c2cccc(OCc3ccc(Cl)cc3Cl)c2)N=C2SCCCCN12 | 0 | 4.61 | > 10 | -44 | 2.53 | 1.65 | inactive | -21 | – | 3.18 | 33 | 16 | – | – | – | Ki [17]: > 10 µM |
| O=C1/C(=C/c2cccc([N+](=O)[O-])c2)N=C2SCCCN12 | 2 | > 10 | > 10 | – | > 10 | > 10 | – | – | 6 | > 10 | 20 | 21 | 8 | 19 | 10 | – |
| CCOC(=O)C1CN2C(=NC(=O)C2(c2ccccc2)c2ccccc2)S1 (stereo not given) | 7 | > 10 | > 10 | – | > 10 | > 10 | – | – | 0 | > 10 | 41 | 58 | 0 | 26 | -5 | – |
